Laboratory results: publication PMC8119466, “A screen of FDA-approved drugs identifies inhibitors of protein tyrosine phosphatase 4A3 (PTP4A3 or PRL-3)” (Scientific Reports, 2021)
Counter-ions that a name gives are not always drawn. Starred links: 1 amine or outer side, 2 acyl side, 3 side chain; linkers in the order of their positions; H or OH if unused. Positions of bridges follow the written chain, without caps; N, C: chain ends. Non-standard residues stand in square brackets, D forms with d. Residues, ends and D or L forms follow the SMILES beside them. *: point of attachment. hTyr(3S-OH,4S-OH,3'-OSO3H) = N[C@H](C(=O)O)[C@H](O)[C@@H](O)c1ccc(O)c(OS(=O)(=O)O)c1; Orn(4R-OH,5R-OH) = O=C([C@H](C[C@@H](O)[C@@H](O)N[*:3])N[*:1])[*:2]; Pro(3S-OH,4S-Me) = C[C@H]1CN[C@H](C(=O)O)[C@H]1O; X1 = CCCCCOc1ccc(-c2cc(-c3ccc(C(=O)*)cc3)no2)cc1; Gln(3R-OH) = NC(=O)C[C@@H](O)[C@H](N)C(=O)O; Hyp = O=C(O)[C@@H]1C[C@@H](O)CN1

Assays:
Format in all cases: biochemical
Settings in all cases: FDA-approved drug screen
recombinant PRL-2 = target: T1, recombinant PRL-2 (Homo sapiens, UniProt Q12974); assay: In vitro phosphatase assay (DiFMUP hydrolysis), PRL-2;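 further: PRL-2 activity read as DiFMUP hydrolysis after 20 min at room temperature with drug, enzyme first pre-reduced at 4 °C for 20 min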
T1 construct: 6xHis (N, cleaved yes); made in house; host or cells: E. coli One Shot BL21 Star
T1 sequence (Q12974 1-167): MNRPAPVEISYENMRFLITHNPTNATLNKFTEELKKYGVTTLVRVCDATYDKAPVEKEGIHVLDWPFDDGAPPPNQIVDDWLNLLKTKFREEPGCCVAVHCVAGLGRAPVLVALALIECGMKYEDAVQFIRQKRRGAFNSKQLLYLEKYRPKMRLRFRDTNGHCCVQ

recombinant PRL-3 = target: T2, recombinant PRL-3 (Homo sapiens, UniProt O75365); assay: In vitro phosphatase assay (DiFMUP hydrolysis), PRL-3; further: test concentration or dose not given here
T2 construct: 6xHis (N, cleaved yes); made in house; host or cells: E. coli One Shot BL21 Star

recombinant PRL-1 = target: T3, recombinant PRL-1 (Homo sapiens, UniProt Q93096); assay: In vitro phosphatase assay (DiFMUP hydrolysis), PRL-1; further: test concentration or dose not given here
T3 construct: 6xHis (N, cleaved yes); made in house; host or cells: E. coli One Shot BL21 Star
T3 sequence (Q93096 1-173): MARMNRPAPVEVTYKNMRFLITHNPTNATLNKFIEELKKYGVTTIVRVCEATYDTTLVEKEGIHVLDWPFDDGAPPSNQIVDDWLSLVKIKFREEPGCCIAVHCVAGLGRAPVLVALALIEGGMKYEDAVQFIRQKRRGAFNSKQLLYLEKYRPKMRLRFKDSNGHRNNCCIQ

T2 sequence (O75365 whole entry): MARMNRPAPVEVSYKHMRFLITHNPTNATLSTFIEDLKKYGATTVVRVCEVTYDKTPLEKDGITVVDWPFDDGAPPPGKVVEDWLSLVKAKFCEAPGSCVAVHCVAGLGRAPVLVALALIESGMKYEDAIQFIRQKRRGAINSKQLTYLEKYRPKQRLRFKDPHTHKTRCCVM

Row | % Phosphatase Activity (compared to DMSO) PRL-2 (recombinant PRL-2; activity compared to DMSO) [%] | % Phosphatase Activity (compared to DMSO) PRL-3 (recombinant PRL-3; activity compared to DMSO) [%] | % Phosphatase Activity (compared to DMSO) PRL-1 (recombinant PRL-1; activity compared to DMSO) [%] | Compound | % Phosphatase Activity (compared to DMSO) PRL-2 (recombinant PRL-2; compared to DMSO) [%] | % Phosphatase Activity (compared to DMSO) PRL-3 (recombinant PRL-3; compared to DMSO) [%] | % Phosphatase Activity (compared to DMSO) PRL-1 (recombinant PRL-1; compared to DMSO) [%]
1 | – | – | – | Cl.Fc1ccc([C@@H]2CCNC[C@H]2COc2ccc3c(c2)OCO3)cc1 [Paroxetine HCl] | 128 | 95 | 90
2 | – | – | – | CCCCN1CCCCC1C(=O)Nc1c(C)cccc1C (stereo not drawn) [Bupivacaine HCl] | 108 | 82 | 108
3 | – | – | – | COc1cccc2c1C(=O)c1c(O)c3c(c(O)c1C2=O)C[C@@](O)(C(=O)CO)C[C@@H]3O[C@H]1C[C@H](N)[C@H](O)[C@H](C)O1 [Doxorubicin (Adriamycin)] | 74 | 73 | 75
4 | – | – | – | COCCCOc1cc(C[C@@H](C[C@H](N)[C@@H](O)C[C@H](C(=O)NCC(C)(C)C(N)=O)C(C)C)C(C)C)ccc1OC [Aliskiren Hemifumarate] | 122 | 102 | 102
5 | – | – | – | COC(=O)/C=C/C(=O)OC [Dimethyl Fumarate] | 115 | 83 | 106
6 | 66 | 48 | 68 | COc1cc(C(=O)NS(=O)(=O)c2ccccc2C)ccc1Cc1cn(C)c2ccc(NC(=O)OC3CCCC3)cc12 [Zafirlukast] | – | – | –
7 | – | – | – | CN(C)c1ccc(O)c2c1C[C@H]1C[C@H]3[C@H](N(C)C)C(O)=C(C(N)=O)C(=O)[C@@]3(O)C(O)=C1C2=O [Minocycline HCl] | 70 | 104 | 84
8 | – | – | – | COC(=O)C1=C(C)NC(C)=C(C(=O)OCCN(C)Cc2ccccc2)C1c1cccc([N+](=O)[O-])c1 (stereo not drawn) [Nicardipine HCl] | 80 | 68 | 85
9 | – | – | – | CN1CCc2nc(C(=O)N[C@@H]3C[C@@H](C(=O)N(C)C)CC[C@@H]3NC(=O)C(=O)Nc3ccc(Cl)cn3)sc2C1 [Edoxaban] | 99 | 106 | 110
10 | – | – | – | O.O.O.O.O=C([O-])CC(O)(CC(=O)[O-])C(=O)[O-].[Li+].[Li+].[Li+] [Citric acid trilithium salt tetrahydrate] | 92 | 89 | 93
11 | – | – | – | O=c1[nH]c2ccccc2n1CCCN1CCC(n2c(=O)[nH]c3cc(Cl)ccc32)CC1 [Domperidone] | 112 | 79 | 118
12 | – | – | – | Nc1ncnc2c1ncn2[C@@H]1O[C@H](CO)[C@@H](O)[C@H]1O [Adenosine] | 93 | 87 | 100
13 | – | – | – | N=C(N)NC(=O)Cc1c(Cl)cccc1Cl [Guanfacine Hydrochloride] | 84 | 96 | 103
14 | – | – | – | CNC[C@H](O)[C@@H](O)[C@H](O)[C@H](O)CO.Cc1c(Nc2ncccc2C(=O)O)cccc1C(F)(F)F [Flunixin Meglumin] | 88 | 80 | 94
15 | 97 | 81 | 91 | C[C@]12C=CC(=O)C=C1CC[C@H]1[C@@H]3C[C@@H](O)[C@](O)(C(=O)CO)[C@@]3(C)C[C@H](O)[C@@]12F [Triamcinolone] | – | – | –
16 | – | – | – | CCN1CCN(C(=O)N[C@@H](C(=O)N[C@@H]2C(=O)N3C(C(=O)O)=C(CSc4nnnn4C)CS[C@H]23)c2ccc(O)cc2)C(=O)C1=O [Cefoperazone] | 94 | 89 | 100
17 | – | – | – | CC1(C)O[C@@H]2C[C@H]3[C@@H]4CCC5=CC(=O)C=C[C@]5(C)[C@H]4[C@@H](O)C[C@]3(C)[C@]2(C(=O)CO)O1 [Desonide] | 97 | 84 | 98
18 | – | – | – | CC(=O)NC(CCC(N)=O)C(=O)O (stereo not drawn) [Aceglutamide] | 96 | 87 | 107

Row | % Phosphatase Activity (compared to DMSO) PRL-2 (recombinant PRL-2; activity compared to DMSO) [%] | % Phosphatase Activity (compared to DMSO) PRL-3 (recombinant PRL-3; activity compared to DMSO) [%] | % Phosphatase Activity (compared to DMSO) PRL-1 (recombinant PRL-1; activity compared to DMSO) [%] | Compound | % Phosphatase Activity (compared to DMSO) PRL-2 (recombinant PRL-2; compared to DMSO) [%] | % Phosphatase Activity (compared to DMSO) PRL-3 (recombinant PRL-3; compared to DMSO) [%] | % Phosphatase Activity (compared to DMSO) PRL-1 (recombinant PRL-1; compared to DMSO) [%]
19 | – | – | – | CCOC(=O)[C@H]1O[C@@H]1C(=O)N[C@@H](CC(C)C)C(=O)NCCC(C)C [Aloxistatin] | 78 | 86 | 87
20 | – | – | – | C[N+](C)(C)CCOC(N)=O [Carbachol] | 100 | 82 | 91
21 | – | – | – | CC(C)NCC(O)c1cc(O)cc(O)c1 (stereo not drawn) [Metaproterenol Sulfate] | 112 | 95 | 98
22 | – | – | – | COCCc1ccc(OCC(O)CNC(C)C)cc1 (stereo not drawn) [Metoprolol Tartrate] | 109 | 98 | 89
23 | 110 | 81 | 115 | O=S(=O)(O)Oc1ccc(C(c2ccc(OS(=O)(=O)O)cc2)c2ccccn2)cc1 [Sodium Picosulfate] | – | – | –
24 | – | – | – | COC(=O)C1=C(C)NC(C)=C(C(=O)OC(C)C)C1c1cccc2nonc12 (stereo not drawn) [Isradipine] | 74 | 71 | 94
25 | – | – | – | CC1(C)CCC(c2ccc(Cl)cc2)=C(CN2CCN(c3ccc(C(=O)NS(=O)(=O)c4ccc(N[C@H](CCN5CCOCC5)CSc5ccccc5)c(S(=O)(=O)C(F)(F)F)c4)cc3)CC2)C1 [ABT-263 (Navitoclax)] | 75 | 81 | 90
26 | – | – | – | NC(=O)c1cn(Cc2c(F)cccc2F)nn1 [Rufinamide] | 91 | 77 | 91
27 | – | – | – | OC[C@H]1O[C@@H](c2ccc(Cl)c(Cc3ccc(O[C@H]4CCOC4)cc3)c2)[C@H](O)[C@@H](O)[C@@H]1O [Empagliflozin (BI 10773)] | 93 | 97 | 109
28 | – | – | – | Nc1ccc(/N=N/c2ccccc2)c(N)n1 [Phenazopyridine HCl] | 61 | 55 | 64
29 | – | – | – | Cc1ccc2c(Cl)cc(Cl)c(O)c2n1 [Chlorquinaldol] | 102 | 71 | 88
30 | – | – | – | Clc1ccc(C(Cn2ccnc2)OCc2ccc(Sc3ccccc3)cc2)c(Cl)c1 (stereo not drawn) [Fenticonazole Nitrate] | 117 | 110 | 107
31 | – | – | – | CCCCCOc1ccc(-c2cc(-c3ccc(C(=O)N[C@H]4C[C@@H](O)[C@@H](O)NC(=O)[C@@H]5[C@@H](O)[C@@H](C)CN5C(=O)[C@H]([C@H](O)CC(N)=O)NC(=O)[C@H]([C@H](O)[C@@H](O)c5ccc(O)c(OS(=O)(=O)[O-])c5)NC(=O)[C@@H]5C[C@@H](O)CN5C(=O)[C@H]([C@@H](C)O)NC4=O)cc3)no2)cc1.[Na+] [Micafungin Sodium] (X1-[Orn(4R-OH,5R-OH)]T[Hyp][hTyr(3S-OH,4S-OH,3'-OSO3H)][Gln(3R-OH)][Pro(3S-OH,4S-Me)]; lactam 1-C) | 90 | 49 | 74
32 | – | – | – | COc1ccc2[n-]c([S+]([O-])Cc3ncc(C)c(OC)c3C)nc2c1.COc1ccc2[n-]c([S+]([O-])Cc3ncc(C)c(OC)c3C)nc2c1.[Mg+2] (stereo not drawn) [Esomeprazole Magnesium] | 88 | 93 | 84
33 | – | – | – | Cc1cccc(C)c1NC(=O)C1CCCCN1C (stereo not drawn) [Mepivacaine HCl] | 104 | 87 | 86
34 | – | – | – | CCCCC1=NC2(CCCC2)C(=O)N1Cc1ccc(-c2ccccc2-c2nnn[nH]2)cc1 [Irbesartan] | 87 | 84 | 95
35 | – | – | – | C=CC[C@]1(O)CC[C@H]2[C@@H]3CCC4=CC(=O)CCC4=C3C=C[C@@]21C [Altrenogest] | 178 | 156 | 192

Row | Compound | % Phosphatase Activity (compared to DMSO) PRL-2 (recombinant PRL-2; activity compared to DMSO) [%] | % Phosphatase Activity (compared to DMSO) PRL-3 (recombinant PRL-3; activity compared to DMSO) [%] | % Phosphatase Activity (compared to DMSO) PRL-1 (recombinant PRL-1; activity compared to DMSO) [%] | % Phosphatase Activity (compared to DMSO) PRL-2 (recombinant PRL-2; compared to DMSO) [%] | % Phosphatase Activity (compared to DMSO) PRL-3 (recombinant PRL-3; compared to DMSO) [%] | % Phosphatase Activity (compared to DMSO) PRL-1 (recombinant PRL-1; compared to DMSO) [%]
36 | Cc1[nH]c(/C=C2\C(=O)Nc3ccccc32)c(C)c1CCC(=O)O [TSU-68 (SU6668, Orantinib)] | 52 | 52 | 75 | – | – | –
